Literature values in paper PMC9516332 (Frontiers in Oncology, 2022).
Where two headings read alike, the source gives them in different places.

Legend:
[1] = biological target: panel of 255 wild-type kinases (Homo sapiens, UniProt O00311); conditions: CDC7/ASK kinase assay, 1 µmol/L single concentration, cited from earlier work
[2] = biological target: panel of 255 wild-type kinases (Homo sapiens, UniProt P08581); conditions: MET, 1 µmol/L single concentration, cited from earlier work
[3] = biological target: panel of 255 wild-type kinases (Homo sapiens, UniProt P08922); conditions: cited from earlier work
[4] = biological target: panel of 255 wild-type kinases (Homo sapiens, UniProt P10721); conditions: kinase KIT, 1 µmol/L single concentration, cited from earlier work
[5] = biological target: panel of 255 wild-type kinases (Homo sapiens, UniProt P22694); conditions: kinase PKACβ, 1 µmol/L single concentration, cited from earlier work
[6] = biological target: panel of 255 wild-type kinases (Homo sapiens, UniProt P49674); conditions: kinase CK1ε, 1 µmol/L single concentration, cited from earlier work
[7] = biological target: T1, panel of 255 wild-type kinases (Homo sapiens, UniProt P51813); conditions: BMX kinase assay, 1 µmol/L single concentration, cited from earlier work
T1 sequence (P51813 1-675): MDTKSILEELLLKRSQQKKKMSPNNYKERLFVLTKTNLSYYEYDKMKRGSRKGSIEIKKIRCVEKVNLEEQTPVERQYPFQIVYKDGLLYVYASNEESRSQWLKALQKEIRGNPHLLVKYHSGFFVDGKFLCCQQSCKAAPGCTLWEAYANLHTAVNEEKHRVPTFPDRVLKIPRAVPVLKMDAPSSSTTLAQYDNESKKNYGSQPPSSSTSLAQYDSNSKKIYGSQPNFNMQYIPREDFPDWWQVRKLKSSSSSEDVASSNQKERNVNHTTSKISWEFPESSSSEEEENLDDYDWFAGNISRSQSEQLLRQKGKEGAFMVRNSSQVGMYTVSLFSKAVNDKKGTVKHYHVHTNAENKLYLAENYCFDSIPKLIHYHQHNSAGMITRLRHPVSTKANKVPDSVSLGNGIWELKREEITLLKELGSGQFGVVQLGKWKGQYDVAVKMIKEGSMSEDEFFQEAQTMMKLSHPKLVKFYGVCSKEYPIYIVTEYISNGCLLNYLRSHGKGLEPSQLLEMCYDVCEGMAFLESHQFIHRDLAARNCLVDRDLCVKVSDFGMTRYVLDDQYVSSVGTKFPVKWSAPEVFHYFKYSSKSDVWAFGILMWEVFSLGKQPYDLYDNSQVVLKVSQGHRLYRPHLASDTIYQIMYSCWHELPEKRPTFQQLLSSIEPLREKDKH

[8] = biological target: panel of 255 wild-type kinases (Homo sapiens, UniProt Q00534); conditions: CDK6/CycD3 kinase assay, 1 µmol/L single concentration, cited from earlier work
[9] = biological target: T2, panel of 255 wild-type kinases (Homo sapiens, UniProt Q13043); conditions: MST1, 1 µmol/L single concentration, cited from earlier work
T2 sequence (Q13043 1-487): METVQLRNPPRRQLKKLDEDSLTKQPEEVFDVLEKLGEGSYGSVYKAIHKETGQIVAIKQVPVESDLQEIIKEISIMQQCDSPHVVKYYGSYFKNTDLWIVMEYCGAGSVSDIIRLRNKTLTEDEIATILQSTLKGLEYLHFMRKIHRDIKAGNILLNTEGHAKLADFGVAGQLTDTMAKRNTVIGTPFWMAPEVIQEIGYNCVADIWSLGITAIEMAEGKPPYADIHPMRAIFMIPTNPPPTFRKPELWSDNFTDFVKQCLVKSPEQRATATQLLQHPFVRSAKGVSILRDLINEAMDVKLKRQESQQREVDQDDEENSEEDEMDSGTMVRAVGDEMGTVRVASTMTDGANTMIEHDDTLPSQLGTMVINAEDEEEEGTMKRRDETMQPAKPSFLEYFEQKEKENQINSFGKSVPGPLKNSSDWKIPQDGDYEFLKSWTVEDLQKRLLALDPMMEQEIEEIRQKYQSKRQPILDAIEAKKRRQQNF

[10] = biological target: panel of 255 wild-type kinases (Homo sapiens, UniProt Q15418); conditions: kinase RSK1, 1 µmol/L single concentration, cited from earlier work
[11] = biological target: T3, panel of 255 wild-type kinases (Homo sapiens, UniProt Q8IW41); conditions: MAPKAPK5, 1 µmol/L single concentration, cited from earlier work
T3 sequence (Q8IW41 1-473): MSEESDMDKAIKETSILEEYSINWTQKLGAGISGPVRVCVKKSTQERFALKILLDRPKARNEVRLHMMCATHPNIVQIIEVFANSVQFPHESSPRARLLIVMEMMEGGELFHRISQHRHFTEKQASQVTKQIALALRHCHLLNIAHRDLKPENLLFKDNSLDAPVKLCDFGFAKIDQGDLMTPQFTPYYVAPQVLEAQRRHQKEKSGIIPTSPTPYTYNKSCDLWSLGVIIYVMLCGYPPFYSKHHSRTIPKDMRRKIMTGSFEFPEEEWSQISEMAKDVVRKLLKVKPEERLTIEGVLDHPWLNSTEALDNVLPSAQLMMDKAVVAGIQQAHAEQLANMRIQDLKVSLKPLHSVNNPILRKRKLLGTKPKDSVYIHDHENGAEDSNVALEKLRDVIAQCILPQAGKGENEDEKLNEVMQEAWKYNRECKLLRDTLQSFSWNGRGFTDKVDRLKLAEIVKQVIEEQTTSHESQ

[12] = biological target: panel of 255 wild-type kinases (Homo sapiens, UniProt Q9HCP0); conditions: kinase CK1γ1, 1 µmol/L single concentration, cited from earlier work
[13] = ref DOI: 10.1371/journal.pone.0092146
[14] = kinase ROS, 1 µmol/L single concentration, ref DOI: 10.1371/journal.pone.0092146
[15] = ref DOI: 10.1158/1535-7163.MCT-18-0877
[16] = kinase ROS, 1 µmol/L single concentration, ref DOI: 10.1158/1535-7163.MCT-18-0877

SMILES	%-inhibition CDC7/ASK [1, 13]	%-inhibition, MET [2, 13]	%-inhibition at 1 µmol/L, ROS [3, 14]	%-inhibition at 1 µmol/L, KIT [4, 13]	%-inhibition at 1 µmol/L, PKACβ [5, 13]	%-inhibition at 1 µmol/L, CK1ε [6, 13]	%-inhibition BMX [7, 13]	%-inhibition CDK6/CycD3 [8, 13]	%-inhibition, MST1 [9, 13]	%-inhibition at 1 µmol/L, RSK1 [10, 13]	%-inhibition CDC7/ASK [1, 15]	%-inhibition, MET [2, 15]	%-inhibition at 1 µmol/L, ROS [3, 16]	%-inhibition at 1 µmol/L, PKACβ [5, 15]	%-inhibition at 1 µmol/L, CK1ε [6, 15]	%-inhibition CDK6/CycD3 [8, 15]	%-inhibition, MST1 [9, 15]	%-inhibition at 1 µmol/L, RSK1 [10, 15]	%-inhibition, MAPKAPK5 [11, 15]	%-inhibition at 1 µmol/L, CK1γ1 [12, 15]	other results
CCCS(=O)(=O)Nc1ccc(F)c(C(=O)c2c[nH]c3ncc(-c4ccc(Cl)cc4)cc23)c1F [vemurafenib]	-7%	3.67%	2%	58%	2.66%	2.46%	24%	2.43%	51%	-1.32%											%-inhibition, MAPKAPK5 [11, 13]: 12%; %-inhibition at 1 µmol/L, CK1γ1 [12, 13]: -2%
CC(=O)Nc1cccc(-n2c(=O)n(C3CC3)c(=O)c3c(Nc4ccc(I)cc4F)n(C)c(=O)c(C)c32)c1 [trametinib]	-8%	-2.41%	-0.611%	-0.648%	-5%	-5.38%	-3.22%	-4.23%	-3.74%	-10%											%-inhibition, MAPKAPK5 [11, 13]: -2.22%; %-inhibition at 1 µmol/L, CK1γ1 [12, 13]: 0.211%
CCc1cc2c(cc1N1CCC(N3CCOCC3)CC1)C(C)(C)c1[nH]c3cc(C#N)ccc3c1C2=O [alectinib]											-0.8%	8%	14%	2%	4.48%	-0.448%	10%	15%	-2.38%	-0.412%	%-inhibition at 1 µmol/L, KIT [4, 15]: 0.373%; %-inhibition BMX [7, 15]: 4%
CC(C)(C)c1nc(-c2cccc(NS(=O)(=O)c3c(F)cccc3F)c2F)c(-c2ccnc(N)n2)s1 [dabrafenib]	-6%	27%	8.55%	59%		10%	55%														
CC#CC(=O)N1CCC[C@H]1c1nc(-c2ccc(C(=O)Nc3ccccn3)cc2)c2c(N)nccn12 [acalabrutinib]											-1.64%	4%	1.79%	-13%	-10%	3%	4%	3.57%	-1.87%	0.334%	%-inhibition at 1 µmol/L, KIT [4, 15]: 3%
Cc1cc(Nc2ncc(Cl)c(Nc3ccccc3S(=O)(=O)C(C)C)n2)c(OC(C)C)cc1C1CCNCC1 [ceritinib]											-2.74%	16%	101%	-11%	5%	3.4%	17%	75%	-2.68%	19%	%-inhibition BMX [7, 15]: -0.557%
CO[C@@H]1[C@H](N(C)C(=O)c2ccccc2)C[C@H]2O[C@]1(C)n1c3ccccc3c3c4c(c5c6ccccc6n2c5c31)C(=O)NC4 [midostaurin]											60%	45%		91%		1.81%		98%	-2%	-0.49%	%-inhibition at 1 µmol/L, ROS [3]: 102%; %-inhibition BMX [7, 15]: 81%
C=CC(=O)N1CCC[C@@H](n2nc(-c3ccc(Oc4ccccc4)cc3)c3c(N)ncnc32)C1 [ibrutinib]											-1%	12%	5%	-9%	50%	4.32%	4%	5.47%	-2.44%	3.68%	%-inhibition at 1 µmol/L, KIT [4, 15]: -4.53%
C[C@@H](Oc1cc(-c2cnn(C3CCNCC3)c2)cnc1N)c1c(Cl)ccc(F)c1Cl [crizotinib]				16%	-2.3%	4%		0.0624%	83%	-5%											%-inhibition, MAPKAPK5 [11, 13]: -3.19%; %-inhibition at 1 µmol/L, CK1γ1 [12, 13]: -3.52%
